From patent US20240174680A1, “CDK2 INHIBITORS AND METHODS OF USING THE SAME” (Cedilla Therapeutics, Inc., priority 2021, published 2024)
pIC50: −log10 of the molar value.

Biological target: CDK2/Cyclin E1 (Homo sapiens, UniProt P24941)
Assay: CDK2/Cyclin E1 Caliper LabChip EZ Reader mobility shift assay
Assay type: biochemical
Parameters: purchased Eurofins 14-475
Conditions: read-out: Caliper Assay (CDK2/CCNE1): IC50
Experimental: Inhibition of CDK2/Cyclin E1 activity in the presence of compounds of the present disclosure was evaluated using a Caliper LabChip® EZ Reader mobility shift assay. In the assay, CDK2/Cyclin E1 (Eurofins, 14-475) catalyzed the phosphorylation of a fluorescently tagged peptide 5-FAM-QSPKKG-CONH2 (PerkinElmer, FL Peptide 18) which induced a difference in capillary electrophoresis mobility. The peptide substrate and product were measured, and the conversion ratio was used to determine the inhibition (as % activity and IC50 values) of CDK2/Cyclin E1. Reactions contained 50 mM HEPES pH 7.5, 10 mM MgCl2, 1 mM EDTA, 2 mM DTT, 0.01% Brij35, 0.5 mg/mL BSA, 0.1% DMSO, 2.5 nM CDK2/Cyclin E1, 100 μM ATP, and 1.5 μM fluorescent peptide substrate.
Dose titrations of inhibitors in 100% DMSO were combined with 3.25 nM CDK2/Cyclin E1 and 130 μM of ATP in reaction buffer. The mixtures were incubated for 30 minutes before the addition of fluorescent peptide substrate to initiate the kinase reaction. The final conditions were 2.5 nM CDK2/Cyclin E1, 100 μM ATP, and 1.5 μM fluorescent peptide. The reactions were stopped after 100 minutes with the addition of EDTA (400 mM final EDTA concentration). The stopped reactions were analyzed on a Caliper LabChip® EZ Reader II. The conversion ratios were normalized to yield % activity, plotted against compound concentration, and fit to a four-parameter equation to determine the IC50 for each compound.

Row | Compound | pIC50
1 | CNC(=O)[C@@H](NC(=O)[C@H]1CN(C(=O)c2cnn(Cc3ccccc3)c2)CC12CN(C(=O)C1(C)CC1)C2)[C@@H](C)OCc1ccccc1 [I-67B] | < 5.00
2 | CNC(=O)[C@@H](NC(=O)[C@@H]1CN(C(=O)c2cnn(Cc3ccccc3)c2)CC12CN(C(=O)CC(C)C)C2)[C@@H](C)OCc1ccccc1 [I-69A] | 6.00 to 7.00
3 | CNC(=O)[C@@H](NC(=O)[C@H]1CN(C(=O)c2cnn(Cc3ccccc3)c2)CC12CN(C(=O)CC(C)C)C2)[C@@H](C)OCc1ccccc1 [I-69B] | < 5.00
4 | CNC(=O)[C@@H](NC(=O)[C@@H]1CN(C(=O)C2CCNC2)CC12CN(C(=O)[C@H]1CC1(C)C)C2)[C@@H](C)OCc1ccccc1 (stereo partly drawn) [I-70A, (8S)—N-((2S,3R)-3-(benzyloxy)-1-(methylamino)-1-oxobutan-2-yl)-2-((S)-2,2-dimethylcyclopropane-1-carbonyl)-6-(pyrrolidine-3-carbonyl)-2,6-diazaspiro[3.4]octane-8-carboxamide] | < 5.00
5 | CNC(=O)[C@@H](NC(=O)[C@H]1CN(C(=O)C2CCNC2)CC12CN(C(=O)[C@H]1CC1(C)C)C2)[C@@H](C)OCc1ccccc1 (stereo partly drawn) [I-70B] | < 5.00
6 | CNC(=O)[C@@H](NC(=O)[C@@H]1CN(C(=O)c2cnn(Cc3ccccc3)c2)CC12CN(C(=O)C1(F)CC1)C2)[C@@H](C)OCc1ccccc1 [I-71A] | 6.00 to 7.00
7 | CNC(=O)[C@@H](NC(=O)[C@H]1CN(C(=O)c2cnn(Cc3ccccc3)c2)CC12CN(C(=O)C1(F)CC1)C2)[C@@H](C)OCc1ccccc1 [I-71B] | < 5.00
8 | CNC(=O)[C@@H](NC(=O)[C@@H]1CN(C(=O)c2c[nH]c3ccccc23)CC12CN(C(=O)[C@H]1CC1(C)C)C2)[C@@H](C)OCc1ccccc1 [I-72A] | < 5.00
9 | CNC(=O)[C@@H](NC(=O)[C@H]1CN(C(=O)c2c[nH]c3ccccc23)CC12CN(C(=O)[C@H]1CC1(C)C)C2)[C@@H](C)OCc1ccccc1 [I-72B] | < 5.00
10 | CNC(=O)[C@@H](NC(=O)[C@@H]1CN(C(=O)c2cnn(Cc3ccccc3)c2)CC12CN(C(=O)C1(C#N)CC1)C2)[C@@H](C)OCc1ccccc1 [I-73A] | 5.00 to 6.00
11 | CNC(=O)[C@@H](NC(=O)[C@H]1CN(C(=O)c2cnn(Cc3ccccc3)c2)CC12CN(C(=O)C1(C#N)CC1)C2)[C@@H](C)OCc1ccccc1 [I-73B] | < 5.00
12 | CCC(CC)C(=O)N1CC2(CN(C(=O)c3cnn(Cc4ccccc4)c3)C[C@H]2C(=O)N[C@H](C(=O)NC)[C@@H](C)OCc2ccccc2)C1 [I-74A] | 5.00 to 6.00
13 | CCC(CC)C(=O)N1CC2(CN(C(=O)c3cnn(Cc4ccccc4)c3)C[C@@H]2C(=O)N[C@H](C(=O)NC)[C@@H](C)OCc2ccccc2)C1 [I-74B] | < 5.00
14 | CC1(C)C[C@@H]1C(=O)N1CC2(CN(C(=O)c3cnn(Cc4ccccc4)c3)C[C@H]2C(=O)Nc2cccc(Cc3ccccc3)c2)C1 [I-75A] | 5.00 to 6.00
15 | CC1(C)C[C@@H]1C(=O)N1CC2(CN(C(=O)c3cnn(Cc4ccccc4)c3)C[C@@H]2C(=O)Nc2cccc(Cc3ccccc3)c2)C1 [I-75B] | 5.00 to 6.00
16 | CNC(=O)[C@@H](NC(=O)[C@@H]1CN(C(=O)c2cnn(Cc3ccccc3)c2)CC12CN(C(=O)C(C)(C)C#N)C2)[C@@H](C)OCc1ccccc1 [I-76A] | 5.00 to 6.00
17 | CNC(=O)[C@@H](NC(=O)[C@H]1CN(C(=O)c2cnn(Cc3ccccc3)c2)CC12CN(C(=O)C(C)(C)C#N)C2)[C@@H](C)OCc1ccccc1 [I-76B] | < 5.00
18 | CNC(=O)[C@@H](NC(=O)[C@@H]1CN(Cc2cnc[nH]2)CC12CN(C(=O)[C@H]1CC1(C)C)C2)[C@@H](C)OCc1ccccc1 [I-77A, (S)-6-((1H-imidazol-5-yl)methyl)-N-((2S,3R)-3-(benzyloxy)-1-(methylamino)-1-oxobutan-2-yl)-2-((S)-2,2-dimethylcyclopropane-1-carbonyl)-2,6-diazaspiro[3.4]octane-8-carboxamide] | < 5.00

Row | Compound | pIC50
19 | CNC(=O)[C@@H](NC(=O)[C@H]1CN(Cc2cnc[nH]2)CC12CN(C(=O)[C@H]1CC1(C)C)C2)[C@@H](C)OCc1ccccc1 [I-77B] | < 5.00
20 | CNC(=O)[C@@H](NC(=O)[C@@H]1CN(Cc2cnco2)CC12CN(C(=O)[C@H]1CC1(C)C)C2)[C@@H](C)OCc1ccccc1 [I-78A, (S)—N-((2S,3R)-3-(benzyloxy)-1-(methylamino)-1-oxobutan-2-yl)-2-((S)-2,2-dimethylcyclopropane-1-carbonyl)-6-(oxazol-5-ylmethyl)-2,6-diazaspiro[3.4]octane-8-carboxamide] | < 5.00
21 | CNC(=O)[C@@H](NC(=O)[C@H]1CN(Cc2cnco2)CC12CN(C(=O)[C@H]1CC1(C)C)C2)[C@@H](C)OCc1ccccc1 [I-78B] | < 5.00
22 | CNC(=O)[C@@H](NC(=O)[C@@H]1CN(S(=O)(=O)c2cnn(Cc3ccccc3)c2)CC12CN(C(=O)[C@H]1CC1(C)C)C2)[C@@H](C)OCc1ccccc1 [I-79A] | < 5.00
23 | CNC(=O)[C@@H](NC(=O)[C@H]1CN(S(=O)(=O)c2cnn(Cc3ccccc3)c2)CC12CN(C(=O)[C@H]1CC1(C)C)C2)[C@@H](C)OCc1ccccc1 [I-79B] | < 5.00
24 | CNC(=O)[C@@H](NC(=O)[C@@H]1CN(C(=O)c2cnn(Cc3ccccc3)c2)CC12CN(C(=O)C1(c3ccc(C(C)(C)C)cc3)CC1)C2)[C@@H](C)OCc1ccccc1 [I-80A] | < 5.00
25 | CNC(=O)[C@@H](NC(=O)[C@H]1CN(C(=O)c2cnn(Cc3ccccc3)c2)CC12CN(C(=O)C1(c3ccc(C(C)(C)C)cc3)CC1)C2)[C@@H](C)OCc1ccccc1 [I-80B] | < 5.00
26 | CC1(C)C[C@@H]1C(=O)N1CC2(CN(C(=O)c3cnn(Cc4ccccc4)c3)C[C@H]2C(=O)Nc2ccc(-c3ccccc3)cc2)C1 [I-81A] | 6.00 to 7.00
27 | CC1(C)C[C@@H]1C(=O)N1CC2(CN(C(=O)c3cnn(Cc4ccccc4)c3)C[C@@H]2C(=O)Nc2ccc(-c3ccccc3)cc2)C1 [I-81B] | 5.00 to 6.00
28 | CNC(=O)[C@@H](NC(=O)[C@@H]1CN(C(=O)c2cnn(Cc3ccccc3)c2)CC12CN(C(=O)CC1(COC)CC1)C2)[C@@H](C)OCc1ccccc1 [I-82A] | < 5.00
29 | CNC(=O)[C@@H](NC(=O)[C@H]1CN(C(=O)c2cnn(Cc3ccccc3)c2)CC12CN(C(=O)CC1(COC)CC1)C2)[C@@H](C)OCc1ccccc1 [I-82B] | < 5.00
30 | CC1(C)C[C@@H]1C(=O)N1CC2(CN(C(=O)c3cnn(Cc4ccccc4)c3)C[C@H]2C(=O)N[C@H]2CCCN(C(=O)c3ccccc3)C2)C1 [I-83A] | 5.00 to 6.00
31 | CC1(C)C[C@@H]1C(=O)N1CC2(CN(C(=O)c3cnn(Cc4ccccc4)c3)C[C@@H]2C(=O)N[C@H]2CCCN(C(=O)c3ccccc3)C2)C1 [I-83B] | < 5.00
32 | CC1(C)C[C@@H]1C(=O)N1CC2(CN(C(=O)c3cnn(Cc4ccccc4)c3)C[C@H]2C(=O)Nc2ccc(Cc3ccccc3)cc2)C1 [I-84A] | 5.00 to 6.00
33 | CC1(C)C[C@@H]1C(=O)N1CC2(CN(C(=O)c3cnn(Cc4ccccc4)c3)C[C@@H]2C(=O)Nc2ccc(Cc3ccccc3)cc2)C1 [I-84B] | 5.00 to 6.00
34 | C[C@@H](OCc1ccccc1)[C@H](NC(=O)C1CN(C(=O)c2cnn(Cc3ccccc3)c2)CC12CN(C(=O)[C@H]1CC1(C)C)C2)C(=O)N1CCC(F)(F)CC1 (stereo partly drawn) [I-85] | 7.00 to 8.00
35 | C[C@@H](OCc1ccccc1)[C@H](NC(=O)C1CN(C(=O)c2cnn(Cc3ccccc3)c2)CC12CN(C(=O)[C@H]1CC1(C)C)C2)C(=O)N1CCOCC1 (stereo partly drawn) [I-86] | 7.00 to 8.00
36 | CNC(=O)[C@@H](NC(=O)[C@@H]1CN(C(=O)c2cnn(Cc3ccccc3)c2)CC12CN(C(=O)CC(F)(F)F)C2)[C@@H](C)OCc1ccccc1 [I-87A] | 6.00 to 7.00
